Results taken from ChEMBL document CHEMBL5029145, “Discovery of AZD8154, a Dual PI3Kγδ Inhibitor for the Treatment of Asthma” (J Med Chem, 2021).

Tests used:
[1] = molecular target: Phosphatidylinositol 4,5-bisphosphate 3-kinase catalytic subunit gamma isoform (Homo sapiens, UniProt P48736); assay: Inhibition of recombinant human PI3Kgamma assessed as reduction in ADP production using Dic8-PIP2 as substrate pre-treated for 15 mins followed by substrate addition measured after 60 mins by ADP-glo assay
[2] = molecular target: T1, Phosphatidylinositol 4,5-bisphosphate 3-kinase catalytic subunit delta isoform (Homo sapiens, UniProt O00329); assay: Inhibition of recombinant human PI3Kdelta assessed as reduction in ADP production using Dic8-PIP2 as substrate pre-treated for 15 mins followed by substrate addition measured after 60 mins by ADP-glo assay
T1 sequence (O00329 whole entry): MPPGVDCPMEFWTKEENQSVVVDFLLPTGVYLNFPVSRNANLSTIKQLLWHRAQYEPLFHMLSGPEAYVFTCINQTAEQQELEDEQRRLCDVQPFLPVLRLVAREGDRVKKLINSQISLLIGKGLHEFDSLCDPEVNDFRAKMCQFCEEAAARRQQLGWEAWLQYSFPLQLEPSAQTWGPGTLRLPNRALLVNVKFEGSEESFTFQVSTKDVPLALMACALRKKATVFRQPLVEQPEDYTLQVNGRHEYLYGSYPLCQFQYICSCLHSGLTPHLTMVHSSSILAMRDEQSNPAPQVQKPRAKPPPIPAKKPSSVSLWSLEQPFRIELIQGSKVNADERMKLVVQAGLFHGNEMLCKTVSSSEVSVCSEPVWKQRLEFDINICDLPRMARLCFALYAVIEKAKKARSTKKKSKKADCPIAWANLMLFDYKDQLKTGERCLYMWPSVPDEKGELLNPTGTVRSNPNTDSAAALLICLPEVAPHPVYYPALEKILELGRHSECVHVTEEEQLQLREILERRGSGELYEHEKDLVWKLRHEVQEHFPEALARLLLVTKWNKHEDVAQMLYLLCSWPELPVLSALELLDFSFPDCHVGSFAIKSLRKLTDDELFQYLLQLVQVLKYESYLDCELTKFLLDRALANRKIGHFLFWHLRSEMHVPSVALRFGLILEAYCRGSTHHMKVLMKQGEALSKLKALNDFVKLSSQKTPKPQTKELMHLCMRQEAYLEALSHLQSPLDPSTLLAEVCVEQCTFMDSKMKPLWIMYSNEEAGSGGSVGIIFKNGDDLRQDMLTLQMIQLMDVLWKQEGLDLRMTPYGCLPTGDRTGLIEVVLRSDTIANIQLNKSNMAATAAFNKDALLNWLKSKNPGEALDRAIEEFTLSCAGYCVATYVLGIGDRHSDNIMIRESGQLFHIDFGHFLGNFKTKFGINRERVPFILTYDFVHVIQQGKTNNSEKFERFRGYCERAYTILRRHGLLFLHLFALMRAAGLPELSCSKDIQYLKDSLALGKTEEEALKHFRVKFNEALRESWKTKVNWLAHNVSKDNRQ

[3] = molecular target: T1, Phosphatidylinositol 4,5-bisphosphate 3-kinase catalytic subunit delta isoform; assay: Inhibition of PI3Kdelta in anti-IgM-stimulated human JeKo-1 cells assessed as inhibition of AKT phosphorylation at Ser473 residue incubated for 60 mins by TR-FRET assay
[4] = molecular target: Phosphatidylinositol 4,5-bisphosphate 3-kinase catalytic subunit gamma isoform (Mus musculus, UniProt Q9JHG7); assay: Inhibition of PI3Kgamma in C5a-stimulated mouse RAW 264 cells assessed as inhibition of AKT phosphorylation at Ser473 residue Pretreated for 15 mins followed by C5a stimulation measured after 3 mins by HTRF assay; assay type: cell-based
[5] = molecular target: Phosphatidylinositol 4,5-bisphosphate 3-kinase catalytic subunit alpha isoform (Homo sapiens, UniProt P42336); assay: Inhibition of recombinant human PI3Kalpha assessed as reduction in ADP production using Dic8-PIP2 as substrate pre-treated for 15 mins followed by substrate addition measured after 60 mins by ADP-glo assay
Phosphatidylinositol 4,5-bisphosphate 3-kinase catalytic subunit alpha isoform, sequence (P42336 whole entry, canonical isoform): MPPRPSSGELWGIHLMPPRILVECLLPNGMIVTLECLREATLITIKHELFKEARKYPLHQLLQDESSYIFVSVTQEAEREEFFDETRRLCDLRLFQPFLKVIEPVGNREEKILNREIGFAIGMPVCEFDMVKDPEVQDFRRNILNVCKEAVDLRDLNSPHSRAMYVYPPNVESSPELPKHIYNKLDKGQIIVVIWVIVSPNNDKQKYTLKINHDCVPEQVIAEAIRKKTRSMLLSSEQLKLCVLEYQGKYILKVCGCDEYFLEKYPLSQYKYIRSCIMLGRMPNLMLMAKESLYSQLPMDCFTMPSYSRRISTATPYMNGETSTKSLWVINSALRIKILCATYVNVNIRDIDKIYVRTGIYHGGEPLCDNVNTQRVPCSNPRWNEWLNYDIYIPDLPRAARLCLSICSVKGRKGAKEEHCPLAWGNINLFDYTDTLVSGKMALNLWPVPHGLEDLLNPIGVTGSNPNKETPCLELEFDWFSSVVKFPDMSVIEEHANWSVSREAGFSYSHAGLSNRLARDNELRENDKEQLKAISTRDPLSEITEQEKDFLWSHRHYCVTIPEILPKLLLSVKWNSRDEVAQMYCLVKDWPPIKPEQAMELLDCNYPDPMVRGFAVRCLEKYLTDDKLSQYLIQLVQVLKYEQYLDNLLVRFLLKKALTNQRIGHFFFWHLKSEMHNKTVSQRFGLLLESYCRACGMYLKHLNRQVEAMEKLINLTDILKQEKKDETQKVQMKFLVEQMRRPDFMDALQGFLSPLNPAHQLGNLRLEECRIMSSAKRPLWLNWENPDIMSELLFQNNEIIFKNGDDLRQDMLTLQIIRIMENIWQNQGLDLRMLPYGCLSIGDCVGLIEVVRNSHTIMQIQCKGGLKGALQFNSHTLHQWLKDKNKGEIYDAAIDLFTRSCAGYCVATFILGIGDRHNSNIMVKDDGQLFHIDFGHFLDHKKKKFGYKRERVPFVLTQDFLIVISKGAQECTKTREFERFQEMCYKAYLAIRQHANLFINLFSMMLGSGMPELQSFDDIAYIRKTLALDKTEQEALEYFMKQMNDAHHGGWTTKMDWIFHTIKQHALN

Phosphatidylinositol 4,5-bisphosphate 3-kinase catalytic subunit gamma isoform (Homo sapiens, UniProt P48736), sequence (P48736 whole entry, canonical isoform): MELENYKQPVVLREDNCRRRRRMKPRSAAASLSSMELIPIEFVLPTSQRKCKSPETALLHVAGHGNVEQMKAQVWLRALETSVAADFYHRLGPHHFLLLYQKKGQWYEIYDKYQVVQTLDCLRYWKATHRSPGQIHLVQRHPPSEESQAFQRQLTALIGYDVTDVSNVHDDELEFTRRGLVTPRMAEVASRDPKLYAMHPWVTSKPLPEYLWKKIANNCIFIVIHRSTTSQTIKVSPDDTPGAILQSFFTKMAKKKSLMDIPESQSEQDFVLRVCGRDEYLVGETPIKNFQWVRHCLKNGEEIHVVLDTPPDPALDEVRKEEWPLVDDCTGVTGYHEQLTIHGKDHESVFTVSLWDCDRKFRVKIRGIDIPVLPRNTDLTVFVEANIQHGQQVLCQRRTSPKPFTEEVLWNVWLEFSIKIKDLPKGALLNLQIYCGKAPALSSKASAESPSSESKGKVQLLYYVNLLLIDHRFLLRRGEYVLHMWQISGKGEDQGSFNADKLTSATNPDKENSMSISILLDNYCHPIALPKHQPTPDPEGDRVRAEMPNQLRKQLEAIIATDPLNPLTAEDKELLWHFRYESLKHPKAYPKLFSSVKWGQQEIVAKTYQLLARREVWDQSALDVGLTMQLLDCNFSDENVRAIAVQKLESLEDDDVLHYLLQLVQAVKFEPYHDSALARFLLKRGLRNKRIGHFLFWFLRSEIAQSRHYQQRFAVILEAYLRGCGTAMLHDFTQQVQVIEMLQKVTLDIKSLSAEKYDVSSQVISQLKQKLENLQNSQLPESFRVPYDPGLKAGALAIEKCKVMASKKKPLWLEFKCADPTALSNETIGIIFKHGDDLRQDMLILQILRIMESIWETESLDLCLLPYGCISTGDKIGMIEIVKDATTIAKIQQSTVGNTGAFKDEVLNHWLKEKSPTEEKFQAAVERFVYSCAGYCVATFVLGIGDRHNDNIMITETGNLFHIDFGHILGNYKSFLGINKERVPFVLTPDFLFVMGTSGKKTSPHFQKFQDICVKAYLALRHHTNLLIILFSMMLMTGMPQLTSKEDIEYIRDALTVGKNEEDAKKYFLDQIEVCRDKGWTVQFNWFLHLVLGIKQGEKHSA
Phosphatidylinositol 4,5-bisphosphate 3-kinase catalytic subunit gamma isoform (Mus musculus, UniProt Q9JHG7), sequence (Q9JHG7 whole entry, canonical isoform): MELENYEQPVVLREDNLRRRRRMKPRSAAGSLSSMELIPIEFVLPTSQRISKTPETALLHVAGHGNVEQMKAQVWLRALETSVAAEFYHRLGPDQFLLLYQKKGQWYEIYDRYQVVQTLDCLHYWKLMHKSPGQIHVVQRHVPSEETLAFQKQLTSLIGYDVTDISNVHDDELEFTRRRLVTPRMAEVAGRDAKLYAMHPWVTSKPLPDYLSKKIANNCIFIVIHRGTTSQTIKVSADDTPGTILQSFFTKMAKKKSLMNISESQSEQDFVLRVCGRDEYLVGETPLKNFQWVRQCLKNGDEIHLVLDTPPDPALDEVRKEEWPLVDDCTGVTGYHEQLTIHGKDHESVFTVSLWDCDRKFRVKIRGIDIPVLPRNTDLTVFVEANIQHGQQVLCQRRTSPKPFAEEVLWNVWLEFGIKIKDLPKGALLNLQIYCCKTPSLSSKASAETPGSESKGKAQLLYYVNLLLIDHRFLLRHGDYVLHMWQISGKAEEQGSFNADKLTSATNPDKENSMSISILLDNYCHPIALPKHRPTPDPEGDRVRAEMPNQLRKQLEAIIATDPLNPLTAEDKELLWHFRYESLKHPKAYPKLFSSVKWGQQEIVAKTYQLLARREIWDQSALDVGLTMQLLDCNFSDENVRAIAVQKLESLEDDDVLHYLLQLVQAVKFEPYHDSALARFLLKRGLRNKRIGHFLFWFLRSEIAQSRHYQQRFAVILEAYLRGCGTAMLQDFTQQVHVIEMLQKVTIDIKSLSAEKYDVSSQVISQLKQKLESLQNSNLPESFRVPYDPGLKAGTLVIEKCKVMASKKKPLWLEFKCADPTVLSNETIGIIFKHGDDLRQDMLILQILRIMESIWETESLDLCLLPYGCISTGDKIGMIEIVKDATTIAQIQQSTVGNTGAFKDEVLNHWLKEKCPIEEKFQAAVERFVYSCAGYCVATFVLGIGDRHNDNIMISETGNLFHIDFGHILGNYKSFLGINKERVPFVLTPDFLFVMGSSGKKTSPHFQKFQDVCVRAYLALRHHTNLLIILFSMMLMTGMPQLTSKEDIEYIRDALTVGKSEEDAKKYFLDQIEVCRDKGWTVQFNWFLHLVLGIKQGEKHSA

| IC50 [1] [nM] | IC50 [2] [nM] | IC50 [3] [nM] | IC50 [4] [nM] | IC50 [5] [nM] | SMILES |
| --- | --- | --- | --- | --- | --- |
| 2.51 | 25.1 | – | – | – | CC(=O)Nc1nc(C)c(-c2cc3c(c(S(=O)(=O)N(C)c4ccc(CN(C)C)cc4)c2)C(=O)N([C@@H](C)C2CC2)C3)s1 |
| 1 | 50.1 | – | – | – | CNS(=O)(=O)c1cc(-c2sc(Nc3cccc(C)n3)nc2C)cc2c1C(=O)N([C@@H](C)C1CC1)C2 |
| – | 0.794 | 3.98 | 1 | 39.8 | Cc1nc(Nc2cccc(N3CCN(C)C3=O)n2)sc1-c1cc2c(c(S(C)(=O)=O)c1)C(=O)N([C@@H](C)C1CC1)C2 |
| 1 | 158 | – | – | – | CC(=O)Nc1nc(C)c(-c2cc3c(c(S(=O)(=O)Nc4ccc(C#N)cc4)c2)C(=O)N([C@@H](C)C2CC2)C3)s1 |
| 0.631 | 2 | – | – | – | Cc1nc(Nc2cccc(-c3ocnc3CO)n2)sc1-c1cc2c(c(S(C)(=O)=O)c1)C(=O)N([C@@H](C)C1CC1)C2 |
| 1 | 25.1 | – | – | – | Cc1nc(Nc2cccc(-c3nc(C)n(C)n3)n2)sc1-c1cc2c(c(S(C)(=O)=O)c1)C(=O)N([C@@H](C)C1CC1)C2 |
| – | 0.631 | 2.51 | 1 | 20 | CNS(=O)(=O)c1cc(-c2sc(Nc3cccc(N4CCCOC4=O)n3)nc2C)cc2c1C(=O)N([C@@H](C)C1CC1)C2 |
| 7.94 | 0.794 | 1.58 | 3.98 | – | Cc1nc2sc1-c1cc3c(c(c1)S(=O)(=O)Nc1ccc(cc1)CN(C)CCCNC(=O)c1cccc(n1)N2)C(=O)N([C@@H](C)C1CC1)C3 |
| 1 | 1.58 | – | – | – | Cc1nc(-c2cccc(Nc3nc(C)c(-c4cc5c(c(S(C)(=O)=O)c4)C(=O)N([C@@H](C)C4CC4)C5)s3)n2)n(C)n1 |
| – | 25.1 | – | – | – | CC(=O)Nc1nc(C)c(-c2cc3c(c(S(=O)(=O)Nc4cc(C#N)cc(S(C)(=O)=O)c4)c2)C(=O)N([C@@H](C)C2CC2)C3)s1 |
| 1 | 50.1 | – | – | – | CC(=O)Nc1nc(C)c(-c2cc3c(c(S(=O)(=O)Nc4ccccc4)c2)C(=O)N([C@@H](C)C2CC2)C3)s1 |
| – | 0.631 | 3.16 | 2 | 31.6 | Cc1nc(Nc2cccc(N3CCNC3=O)n2)sc1-c1cc2c(c(S(=O)(=O)NC3COC3)c1)C(=O)N([C@@H](C)C1CC1)C2 |
| 1.26 | 0.501 | 1.26 | 1.58 | 31.6 | Cc1nc2sc1-c1cc3c(c(c1)S(=O)(=O)NCCCCCNC(=O)c1cccc(n1)N2)C(=O)N([C@@H](C)C1CC1)C3 |
| – | – | 3.98 | 2.51 | 15.8 | CNS(=O)(=O)c1cc(-c2sc(Nc3cccc(N4CC[C@@H](O)C4=O)n3)nc2C)cc2c1C(=O)N([C@@H](C)C1CC1)C2 |
| – | – | – | – | 20 | CNS(=O)(=O)c1cc(-c2sc(Nc3cccc(N4CCCCC4=O)n3)nc2C)cc2c1C(=O)N([C@@H](C)C1CC1)C2 |
| 1 | 15.8 | – | – | – | CC(=O)Nc1cccc(Nc2nc(C)c(-c3cc4c(c(S(C)(=O)=O)c3)C(=O)N([C@@H](C)C3CC3)C4)s2)n1 |
| – | 0.794 | 5.01 | 1 | 126 | Cc1nc(Nc2cccc(N3CCCC3=O)n2)sc1-c1cc2c(c(S(=O)(=O)NC3COC3)c1)C(=O)N([C@@H](C)C1CC1)C2 |
| 10 | 1 | 1 | 5.01 | – | Cc1nc2sc1-c1cc3c(c(c1)S(=O)(=O)Nc1ccc(cc1)CN(C)CCCCNC(=O)c1cccc(n1)N2)C(=O)N([C@@H](C)C1CC1)C3 |
| 0.794 | 0.631 | 3.16 | 1 | 50.1 | Cc1nc2sc1-c1cc3c(c(c1)S(=O)(=O)NCCN(C)CCCNC(=O)c1cccc(n1)N2)C(=O)N([C@@H](C)C1CC1)C3 |

| IC50 [1] [nM] | IC50 [2] [nM] | IC50 [3] [nM] | IC50 [4] [nM] | IC50 [5] [nM] | SMILES |
| --- | --- | --- | --- | --- | --- |
| – | 0.794 | 6.31 | 3.98 | 39.8 | CNS(=O)(=O)c1cc(-c2sc(Nc3cccc(N4CCNCC4=O)n3)nc2C)cc2c1C(=O)N([C@@H](C)C1CC1)C2 |
| – | 0.631 | 3.98 | 0.794 | 39.8 | CNS(=O)(=O)c1cc(-c2sc(Nc3cccc(N4CCOCC4=O)n3)nc2C)cc2c1C(=O)N([C@@H](C)C1CC1)C2 |
| – | – | – | – | 50.1 | Cc1nc(Nc2cccc(N3CCOCC3=O)n2)sc1-c1cc2c(c(S(C)(=O)=O)c1)C(=O)N([C@@H](C)C1CC1)C2 |
| – | 10 | 126 | – | – | CC(=O)Nc1nc(C)c(-c2cc3c(c(S(=O)(=O)Nc4cccc(C#N)c4)c2)C(=O)N([C@@H](C)C2CC2)C3)s1 |
| 1.26 | 6.31 | – | – | – | CNS(=O)(=O)c1cc(-c2sc(Nc3ccc(C(=O)NCCCN(C)C)cn3)nc2C)cc2c1C(=O)N([C@@H](C)C1CC1)C2 |
| 1.26 | 3.16 | 31.6 | 15.8 | – | CC(=O)Nc1nc(C)c(-c2cc3c(c(S(=O)(=O)Nc4cccc(S(C)(=O)=O)c4)c2)C(=O)N([C@@H](C)C2CC2)C3)s1 |
| – | 1.26 | 3.98 | 1.26 | 20 | Cc1nc(Nc2cccc(N3CCCOC3=O)n2)sc1-c1cc2c(c(S(C)(=O)=O)c1)C(=O)N([C@@H](C)C1CC1)C2 |
| 2 | 15.8 | – | – | – | CC(=O)Nc1nc(C)c(-c2cc3c(c(S(=O)(=O)Nc4cccc(CN(C)C)c4)c2)C(=O)N([C@@H](C)C2CC2)C3)s1 |
| – | 1.26 | – | – | – | CC(=O)N(C)c1cccc(Nc2nc(C)c(-c3cc4c(c(S(C)(=O)=O)c3)C(=O)N([C@@H](C)C3CC3)C4)s2)n1 |
| 2.51 | 6.31 | 50.1 | – | – | CC(=O)Nc1nc(C)c(-c2cc3c(c(S(=O)(=O)Nc4ccc(CN(C)C)cc4)c2)C(=O)N([C@@H](C)C2CC2)C3)s1 |
| – | 1.58 | 6.31 | 1.26 | 39.8 | CNS(=O)(=O)c1cc(-c2sc(Nc3cccc(N4CCN(C)CC4=O)n3)nc2C)cc2c1C(=O)N([C@@H](C)C1CC1)C2 |
| 1 | 158 | – | – | – | CC(=O)Nc1nc(C)c(-c2cc3c(c(S(=O)(=O)Nc4ccc(S(C)(=O)=O)cc4)c2)C(=O)N([C@@H](C)C2CC2)C3)s1 |
| – | 1.26 | 12.6 | 1.58 | 31.6 | Cc1nc(Nc2cccc(N3CCCCC3=O)n2)sc1-c1cc2c(c(S(C)(=O)=O)c1)C(=O)N([C@@H](C)C1CC1)C2 |
| – | 0.794 | 6.31 | 1 | – | CNS(=O)(=O)c1cc(-c2sc(Nc3cccc(N(C)C(C)=O)n3)nc2C)cc2c1C(=O)N([C@@H](C)C1CC1)C2 |
| 3.16 | 3.98 | – | – | – | CNS(=O)(=O)c1cc(-c2sc(Nc3cccc(C(=O)NCCCN(C)C)n3)nc2C)cc2c1C(=O)N([C@@H](C)C1CC1)C2 |
| 3.16 | 158 | – | – | – | CCN(CC)C(=O)c1cccc(Nc2nc(C)c(-c3cc4c(c(S(=O)(=O)NC)c3)C(=O)N([C@@H](C)C3CC3)C4)s2)n1 |
| 0.794 | 5.01 | – | – | – | COCCNC(=O)c1cccc(Nc2nc(C)c(-c3cc4c(c(S(C)(=O)=O)c3)C(=O)N([C@@H](C)C3CC3)C4)s2)n1 |
| 0.794 | 50.1 | – | – | – | CC(=O)Nc1nc(C)c(-c2cc3c(c(S(=O)(=O)N(C)c4cccc(C#N)c4)c2)C(=O)N([C@@H](C)C2CC2)C3)s1 |
| – | 1.26 | 7.94 | 2 | – | CNS(=O)(=O)c1cc(-c2sc(Nc3cccc(N4C[C@H](O)CC4=O)n3)nc2C)cc2c1C(=O)N([C@@H](C)C1CC1)C2 |
